ChEMBL document CHEMBL3507680, “University of Dundee, Gates Library screen for HepG2 cell viability”

Assay: Human HepG2 cell viability assay in 384 well format
Assay type: toxicity, cell-based
Set-up: dose 125 nL, time 70.5 hour; cytotoxicity at 70.5 h: concentration not given beside the values
Conditions: HepG2 cells, read-out: Inhibition

Row | SMILES | cytotoxicity at 70.5 h
1 | CO[C@@H]1CCN(C(=O)c2cc(C)on2)C[C@@H]1Cc1ccccc1 | 20.3%
2 | CCc1ccc(S(=O)(=O)N2Cc3c(CN(C)C)nn(C)c3C2)cc1 | -5.86%
3 | CC1=C[C@@H](CC#N)[C@H](C(C)C)C[C@H]1CC(=O)N1CCN(C)CC1 | 13.1%
4 | O=C(NCCOCCO)c1cccnc1Oc1ccc(Cl)cc1 | 16.6%
5 | CN(C)Cc1ccc(C(=O)N2CCCC(n3cccn3)C2)cc1 (configuration not stated) | 8.2%
6 | CCCN(Cc1nccn1C)C(=O)c1cc(C(C)C)on1 | 3.45%
7 | Cc1nccnc1CCC1COCCN1C(=O)CCc1c(C)noc1C (configuration not stated) | 15.5%
8 | Cc1cc(C(=O)NC2(c3cccc(F)c3)CCOCC2)no1 | -7.78%
9 | CN(c1ccc2ccccc2c1)S(=O)(=O)c1cc(C(=O)O)cs1 | -8.18%
10 | CC(C)n1ccnc1CN1CCCN(C(=O)c2cscn2)CC1 | -2.53%
11 | CS(=O)(=O)N1CCCC(Cc2cncc(Br)c2)CC1 (configuration not stated) | -2.69%
12 | CCOc1ccc(NC(C)=O)cc1S(=O)(=O)Nc1nnc(C)s1 | -10.8%
13 | CN(CC(=O)N(C)C1CCN(CC2CCOC2)CC1)c1ccccc1 (configuration not stated) | -4.84%
14 | Cn1ccc2c(-c3cc(N4CCOCC4)ncn3)ccnc21 | -6.11%
15 | COc1c(CNC(C)c2sc(C)nc2C)c(C(C)C)nn1C (configuration not stated) | 23.8%
16 | CNC(=O)C(C)(C)N1CCC[C@H]1C(=O)NCC(C)C | -6.89%
17 | COc1cccc2c1ccn2CCC(=O)N1CCC(C(=O)O)CC1 | -5.23%
18 | Cc1cccc(N2CCC3(CCCN3Cc3cn(C)nc3C)CC2)n1 | -9.08%
19 | Cc1nc2nc(C)c3c(=O)n(-c4ccn[nH]4)ccc3n2n1 | 10.9%
20 | COCCOc1ncccc1NCc1nc2ccccc2n1C | -15.1%
21 | CCn1cnnc1C1CCN(C(=O)c2ccccc2OC)CC1 | -8.77%
22 | CC(C)Oc1cccc(CN(C)C(=O)Cc2ccon2)c1 | 4.02%
23 | CC(=O)N1N=C(COc2ccc3c(c2)OCO3)OC1c1cccc(Cl)c1 (configuration not stated) | -2.04%

Row | SMILES | cytotoxicity at 70.5 h
24 | Cn1cc(S(=O)(=O)NCC2CCN(C(=O)c3ccoc3)CC2)cn1 | -2.52%
25 | COCCCNc1nc(CNC(C)=O)cc(-c2ccco2)n1 | -8.32%
26 | CN(CC1(O)CCN(c2ccccn2)C1)C(=O)Cc1ccsc1 (configuration not stated) | -6.86%
27 | c1cncc(-c2noc(CN3CCCCC3Cn3cccn3)n2)c1 (configuration not stated) | 1.66%
28 | CCCn1nc2c(cc1=O)CN(CC1CCCCO1)CC2 (configuration not stated) | -1.08%
29 | Cc1oncc1S(=O)(=O)N1CCCC(C)(Cc2ccc3c(c2)OCO3)C1 (configuration not stated) | 14.3%
30 | CN(C)C(=O)c1cccc(NC(=O)N2CCCC(C(F)(F)F)C2)c1 (configuration not stated) | -8.44%
31 | CN(C)C(CNC(=O)NCCc1cccc(O)c1)c1ccco1 (configuration not stated) | -5.87%
32 | O=C(Nc1ccnc(OC2CCOC2)c1)c1cc(F)ccc1F (configuration not stated) | 14.1%
33 | Cc1ccc(S(=O)(=O)N2Cc3c(CN(C)C)nn(C)c3C2)cc1 | 3.97%
34 | NCC1CCC(c2c(C(=O)NCCO)sc3ccccc23)CC1 (configuration not stated) | 16.1%
35 | Cc1cccc(NC(=O)CNC(=O)Cn2ncc(Cl)c(Cl)c2=O)c1C | 4.71%
36 | O=c1[nH]cnc2[nH]c(N3CCCCC3)nc12 | -5.16%
37 | O=C(C1CC1)N1CCc2[nH]cnc2C12CCN(C1CCOCC1)CC2 | -2.02%
38 | Cc1ccccc1N1CCCN(C(=O)CC2CN(C(C)C)CCO2)CC1 (configuration not stated) | 0.214%
39 | COc1ccc2c(ccn2CCC(=O)Nc2n[nH]c(C(C)C)n2)c1 | 24.3%
40 | CC(=O)NCCC1CCCCN1S(=O)(=O)c1ccc2ccccc2c1 (configuration not stated) | 4.83%
41 | CC(C)Oc1ccc(C(=O)NCc2ccc3c(c2)CCCN3C)cn1 | -2.36%
42 | N#Cc1cccnc1N1CCCC(CO)(Cc2cccc(Cl)c2)C1 (configuration not stated) | 2.5%
43 | COCCN1CCC2(CCN(c3ncccn3)CC2)C1=O | 16.9%
44 | O=C(c1cn2cc(Cl)cnc2n1)N1CCOCC(O)(CN2CCCC2)C1 (configuration not stated) | -1.97%
45 | CN(Cc1cncnc1)[C@H]1CN(Cc2ccco2)[C@@H]2CCCO[C@@H]21 | -9.91%
46 | COCCN(C)C[C@@H]1CN(C(=O)c2cccc(C(F)(F)F)c2)C[C@@H]1CO | -9.39%

Row | SMILES | cytotoxicity at 70.5 h
47 | CCN(CC)C(CNS(=O)(=O)c1ccc(C(=O)NC)cc1)c1ccco1 (configuration not stated) | -8.07%
48 | COc1cccc([S+]([O-])CC(=O)NCc2cc(F)cc(F)c2)c1 (configuration not stated) | -1.69%
49 | Cc1noc(C)c1CNC(=O)Nc1ccc(N2CCSCC2)cc1 | -9.93%
50 | COc1cccc(Oc2nc(C)c(C(=O)O)s2)c1OC | -13.3%
51 | CNS(=O)(=O)c1csc(C(=O)NCc2sccc2C)c1 | -4.77%
52 | O=C(NCc1nc[nH]n1)c1cc(COc2ccccc2F)[nH]n1 | -3.89%
53 | Cc1nnc(CCNC2CCN(c3ncnc4c(C)csc34)CC2)s1 | -2.85%
54 | Cn1cc(CNC2CCc3c(ccc(=O)n3Cc3ccncc3)C2)cn1 (configuration not stated) | -15.3%
55 | CC(C(=O)Nc1ncccn1)N1CCc2[nH]nc(C(F)(F)F)c2C1 (configuration not stated) | -6.74%
56 | Cc1nn(C(C)C)c(C)c1NC(=O)Nc1cccnc1N1CCCC1 | -8.9%
57 | Cn1ccnc1CN1CCC2(CC1)CN(Cc1cccnc1)C(=O)CO2 | -5.54%
58 | Cc1nc(C)c2c(n1)CCN(Cc1ccco1)CC2 | 2.27%
59 | Cc1[nH]c2c(F)cccc2c1CC(=O)NCc1csc(N(C)C)n1 | 39.7%
60 | CC1(C)CNC(=O)c2nc(C3CCN(C(=O)C4CC4)CC3)[nH]c2C1 | -11%
61 | Cc1ccc(CN2C[C@@H]3COC[C@]3(COc3ccc(C#N)cn3)C2)o1 | 7.17%
62 | O=S(=O)(c1cccnc1)N1CCN(CC(O)c2cccs2)CC1 (configuration not stated) | -1.48%
63 | Cc1csc2c(=O)n(C(C)Cc3cccnc3)cnc12 (configuration not stated) | -9.53%
64 | Cc1ccc(-c2nc3c([nH]2)CCNC3C(=O)O)c2cccnc12 (configuration not stated) | -6.16%
65 | Cc1ccc(C(C)C(=O)N2CCCN(Cc3cscn3)CC2)cc1 (configuration not stated) | 5.25%
66 | COCCNc1nc(C2CCCC2)nc2c1CCNCC2 | 2.05%
67 | CN(Cc1ccc(F)cc1)[C@@H]1CN(S(C)(=O)=O)C[C@H]1O | -4.5%
68 | CCNC(=O)N1CCC(n2ccc(C(F)(F)F)n2)CC1 | 38.9%
69 | CC(Cn1cncc1-c1cnn(C2CCCCC2)c1)N1CCCCC1 (configuration not stated) | 25%

Row | SMILES | cytotoxicity at 70.5 h
70 | CC(C)NC(=O)C1CN(C(=O)NCc2ccccc2)CC12CCOCC2 (configuration not stated) | 1.12%
71 | Cc1cc(-c2ccc(C(=O)O)cc2)nc(C2CCCN(C(C)C)C2)n1 (configuration not stated) | -9.15%
72 | O=C(c1occc1CN1C(=O)Cc2ccccc21)N1CCCCCC1 | -3.4%
73 | Cn1cc(CN2C[C@H](N3CCOCC3)[C@@H]3OCCC[C@@H]32)cn1 | -4.71%
74 | Cc1nn(C)c(Cl)c1CNCc1cccnc1N1CCOCC1 | 0.768%
75 | Cc1nn(C)c(C)c1-c1nc2cc(S(=O)(=O)N3CCCC3)ccc2n1C | -0.406%
76 | CCCc1nc(C)cc(N2CCC3(CCC(=O)N(CCCO)C3)CC2)n1 | -7.61%
77 | Fc1cccc(CN2C[C@@H]3COC[C@]3(COCc3ccncc3)C2)c1 | -1.32%
78 | CCCN(CC1COc2ccccc2O1)C(=O)CCN1C(=O)CCC1=O (configuration not stated) | -18.8%
79 | Cc1nc(C)c(CC(=O)NCc2ccc(F)cc2F)s1 | -11.3%
80 | CC(NC(=O)CN1CCN(Cc2ccc(Br)s2)CC1)c1ccccc1 (configuration not stated) | 25.3%
81 | O=C(O)c1ccccc1-n1cc(CN2CCC(c3cc[nH]n3)C2)cn1 (configuration not stated) | -2.77%
82 | CC(C)C1CN(C(=O)c2cc(=O)[nH]c(=O)[nH]2)CCCN1CC1CC1 (configuration not stated) | -0.864%
83 | CN1C(=O)CC(c2ccccc2)C12CCN(C(=O)c1ccc[nH]1)CC2 (configuration not stated) | -4.56%
84 | CCc1ccc(C(=O)N2CCCCC2CNS(C)(=O)=O)o1 (configuration not stated) | -2.32%
85 | COCc1nnc2n1CCN(Cc1ccoc1)C2 | -3.74%
86 | CCOC(=O)COc1cccc(NC(=O)C2COCCO2)c1 (configuration not stated) | -3.53%
87 | c1ccc(Cn2cncn2)c(CNCC2CNc3ccnn3C2)c1 (configuration not stated) | -13.5%
88 | COc1cccc2c1CCCCN2C(=O)c1oc(C)nc1C | 0.154%
89 | CC(=O)N1CCc2ccc(S(=O)(=O)N3CCCCC3C)cc21 (configuration not stated) | 0.13%
90 | Cc1cc(C)c(CNC(=O)N2CCC(N3CCCCC3)CC2)c(=O)[nH]1 | -7.65%
91 | CCN1CCC(NC(=O)CN2CCc3c(nc(C4CC4)n3C)C2)CC1 | -10.9%
92 | Cc1ccc(CNC(=O)CC2C(=O)NCCN2Cc2ccccc2C)s1 (configuration not stated) | -0.0744%

Row | SMILES | cytotoxicity at 70.5 h
93 | Cc1ccc(CN2CCOC3(CCN(C(=O)C4CCOC4)CC3)C2)cc1 (configuration not stated) | -1.7%
94 | Cc1cnn(C2CN(Cc3nnc(C4CC4)o3)C2)c1 | -10.1%
95 | CC(=O)NCc1nnc2n1CCN(c1ncnc3c1CCC3)CC2 | 25.3%
96 | Cc1cc(NC(=O)C(C)N2CCN(c3nccs3)CC2)on1 (configuration not stated) | -3.21%
97 | Cc1cc(C)c(N(CC(O)CNCc2ccco2)S(C)(=O)=O)c(C)c1 (configuration not stated) | -7.18%
98 | Cc1ccc(OCCC(=O)NCCCN2CCCC2=O)c(C)c1 | 17.8%
99 | Cc1nc2c(c(NCC(=O)NC(C)C)n1)Cc1ccccc1OC2 | -2.23%
100 | O=C(c1cnn[nH]1)N(Cc1ccncc1)CC1CCCO1 (configuration not stated) | -0.844%
101 | Cc1nc2cc(CNC(=O)C3CC(=O)N(C4CCCC4)C3)ccc2n1C (configuration not stated) | -7.58%
102 | O=C(c1ccncc1)N1CCCC1c1nc(O)cc(-c2ccccn2)n1 (configuration not stated) | -2.92%
103 | CN(C(=O)CNc1ccc(C#N)cc1)C1CCN(c2ccccn2)CC1 | -10%
104 | Cc1nnc2n1CCN(C(C(=O)NC1CC1)c1ccc(F)cc1)C2 (configuration not stated) | -3.54%
105 | CC1(C)CN(C(CNS(C)(=O)=O)c2ccc(Cl)cc2)CCO1 (configuration not stated) | -5.58%
106 | Cc1cnn(C2CCCN(C(=O)Cc3ccc(-n4cccn4)cc3)C2)c1 (configuration not stated) | -3.4%
107 | CNc1ncc2c(n1)CN(CCc1ccc(F)cc1)C2=O | -10.4%
108 | COCC(=O)N1CCC(c2cc3n(n2)[C@@H](C(F)(F)F)C[C@@H](C)N3)CC1 | -8.82%
109 | Cc1csc(N2CCN(C(=O)Cc3ccsc3)CC2)n1 | 31.2%
110 | CCc1cnc(CN2CCC(O)(c3cc(OC)cc(OC)c3)CC2)o1 | -12.2%
111 | COc1cccc(CN2CCCC3(CCN(C(=O)N4CCCC4)C3)C2)c1 (configuration not stated) | -7.71%
112 | CN(Cc1cn2c(n1)CN(C1CCOCC1)CC2)Cc1ccco1 | 24.6%
